“And” between values parts separate entries of the source, which are not always exact repeats. Equal values may be shown once. Read-outs that look alike come from different tables or passages of the source.
Assays:
Recombinant human PDE5A = Recombinant human PDE5A (Homo sapiens, UniProt O76074); assay: PDE inhibition assay against PDE5A (Cyclic Nucleotide Phosphodiesterase Assay Kit, spectrophotometric); format: biochemical; details: in vitro; for IC50: read-out: Inhibitory activity (IC50) PDE5A
[1] = target: T1, Phosphodiesterase I (PDEI) from Crotalus adamanteus venom (Crotalus adamanteus, UniProt J3SEZ3); format: binding
T1 sequence (J3SEZ3 24-851 limits assumed): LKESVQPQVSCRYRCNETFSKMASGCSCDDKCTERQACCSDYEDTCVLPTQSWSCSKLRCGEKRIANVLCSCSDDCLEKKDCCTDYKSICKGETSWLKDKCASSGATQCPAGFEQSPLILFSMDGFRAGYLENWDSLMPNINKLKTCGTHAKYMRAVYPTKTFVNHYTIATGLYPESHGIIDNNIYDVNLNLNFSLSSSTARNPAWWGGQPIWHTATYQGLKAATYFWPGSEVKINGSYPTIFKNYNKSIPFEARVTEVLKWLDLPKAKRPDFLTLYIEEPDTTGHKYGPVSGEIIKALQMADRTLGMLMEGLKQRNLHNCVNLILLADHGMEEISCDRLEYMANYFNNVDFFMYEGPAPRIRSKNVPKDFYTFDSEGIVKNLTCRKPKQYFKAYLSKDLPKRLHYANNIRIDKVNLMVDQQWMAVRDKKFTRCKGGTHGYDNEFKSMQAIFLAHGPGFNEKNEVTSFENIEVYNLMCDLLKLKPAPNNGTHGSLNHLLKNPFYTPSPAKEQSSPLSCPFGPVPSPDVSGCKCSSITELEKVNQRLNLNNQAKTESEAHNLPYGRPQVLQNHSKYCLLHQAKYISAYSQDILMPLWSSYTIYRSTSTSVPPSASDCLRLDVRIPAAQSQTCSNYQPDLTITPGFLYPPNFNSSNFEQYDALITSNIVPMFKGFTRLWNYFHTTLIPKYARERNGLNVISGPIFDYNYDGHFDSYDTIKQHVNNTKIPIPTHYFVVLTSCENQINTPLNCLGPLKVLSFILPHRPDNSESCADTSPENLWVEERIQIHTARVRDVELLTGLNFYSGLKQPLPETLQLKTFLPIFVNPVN

[2] = target: T1, Phosphodiesterase I (PDEI) from Crotalus adamanteus venom; format: biochemical; details: read-out: Inhibitory activity (IC50) PDEI

| SMILES | IC50 (Recombinant human PDE5A) [µM] | Enhancement factor with PDEI ([1]; n = 3) | IC50 [2] [µM] | Binding to PDEI (in words) [1] | Enhancement factor with PDEI [1] | Activity against PDE5A (in words) (Recombinant human PDE5A) |
| --- | --- | --- | --- | --- | --- | --- |
| O=C(C=Cc1ccc(O)c(O)c1)OC1CC(O)(C(=O)O)CC(O)C1OC(=O)C=Cc1ccc(O)c(O)c1 (centres unmarked) [Isochlorogenic acid B (3), Isochlorogenic acid B] | 193 | 19.15 ± 0.77% and 25.90 ± 1.30% |  |  |  |  |
| C[C@@H]1O[C@@H](O[C@H]2[C@H](O[C@H]3[C@H](O[C@H]4CC[C@]5(C)[C@H]6CC=C7[C@H]8[C@](C(=O)O)(CC[C@H](C)[C@@]8(C)O)CC[C@@]7(C)[C@]6(C)CC[C@H]5C4(C)C)OC[C@@H](O)[C@@H]3O)O[C@H](CO)[C@@H](O)[C@@H]2O)[C@H](O)[C@H](O)[C@H]1O [Ilexsaponin B2 (8), Ilexsaponin B2] | 48.8 |  | 478 | strongest PDEI ligand | 28.73 ± 0.55% and 41.85 ± 0.86% |  |
| O=C(C=Cc1ccc(O)c(O)c1)OC1CC(O)(C(=O)O)CC(O)C1OC(=O)C=Cc1ccc(O)c(O)c1 (centres unmarked) [Isochlorogenic acid C (5), Isochlorogenic acid C] |  | 26.73 ± 0.41% and 40.03 ± 0.14% |  | quite strong bindings to PDEI |  | not active |
| C[C@H]1CC[C@]2(C(=O)O)CC[C@]3(C)C(=CC[C@@H]4[C@@]5(C)CC[C@H](O[C@@H]6OC[C@@H](O)[C@H](O)[C@H]6O[C@@H]6O[C@H](CO)[C@@H](O)[C@H](O)[C@H]6O)C(C)(C)[C@@H]5CC[C@]43C)[C@@H]2[C@]1(C)O [Ilexsaponin B1 (10), Ilexsaponin B1] | 1800 |  | 854 |  | 9.20 ± 0.62% and 15.54 ± 0.21% |  |
| C[C@@H]1CC[C@]2(C(=O)O)CC[C@]3(C)C(=CCC4[C@@]5(C)CC[C@H](O)[C@](C)(C(=O)O)C5CC[C@]43C)C2[C@]1(C)O (some centres unmarked) [Ilexgenin A (11), Ilexgenin A] | 177 | 23.08 ± 0.44% and 30.82 ± 0.31% |  |  |  |  |
| C[C@@H]1CC[C@]2(C(=O)OC3OC(CO)C(O)C(O)C3O)CC[C@]3(C)C(=CCC4[C@@]5(C)CC[C@H](O)[C@](C)(C(=O)O)C5CC[C@]43C)C2[C@]1(C)O (some centres unmarked) [Ilexsaponin A1(9), Ilexsaponin A1] | 22.4 | 11.68 ± 0.31% and 18.59 ± 0.65% |  | low binding efficiency |  |  |

Reference: publication PMC5382325, “Rapid Screening of Potential Phosphodiesterase Inhibitors from the Roots of Ilex pubescens Hook. et Arn. Using a Combination of Ultrafiltration and LC–MS” (Evidence-based Complementary and Alternative Medicine : eCAM, 2017)
